Tests used:
Format in all cases: biochemical
PDE1A = biological target: T1, PDE1A (Homo sapiens, UniProt P54750); test: Ca2+-calmodulin dependent PDE enzyme assay (SPA), PDE1A; settings: [3H]cAMP 47 nM; enzyme 0.25 nM; Ca2+/calmodulin buffer pH 7.5; read-out: IC50 (nM) of Example 1, PDE 1A
T1 construct: full-length human PDE1A (NP_001003683.1); His (N); made in house; host or cells: Sf9 (baculovirus, pFastBac1)
Text: (§1) The nucleotide sequences encoding full-length human PDE1A (NP_001003683.1), PDE1C (NP_005011.1), PDE5A (NP_001074.2), PDE7B (NP_061818.1) and PDE9A (NP_002597.1) are inserted into pFastBac1 (Invitrogen) vector with an N-terminal HIS tag. The nucleotide sequences encoding full-length human PDE4D (NP_006194.2) and catalytic domain (residue 641-1141) of PDE3A (NP_000912.3) are inserted into pFastBac1 (Invitrogen) vector with a C-terminal HIS tag. The nucleotide sequences encoding full-length human PDE8A (NP_002596.1) and PDE11A (AAI12394.1) are inserted into pFastBac1 (Invitrogen) vector with an N-terminal Flag tag. The nucleotide sequences encoding full-length human PDE10A (AAD32595.1) are inserted into pFastBac1 (Invitrogen) vector with a C-terminal Flag-His tag. The nucleotide sequences encoding full-length human PDE6A (NP_000431.2) and PDE6B (AAH00249.1) are inserted into pFastBacDual (Invitrogen) vector with an N-terminal HIS tag and N-terminal Flag tag, respectively, for production of PDE6A/6B dimer. […]
(§2) All 3′, 5′ cyclic nucleotide phosphodiesterase (PDE) enzyme activities are measured with a radiometric enzyme assay based on SPA detection system (scintillation proximity assay). […] Samples are read 12 hours later in a MICROBETA™ TRILUX® Counter. […] IC50 values are calculated by plotting the normalized data vs. log [compound] and fitting the data using a four parameter logistic equation. […]

PDE1B = biological target: T2, PDE1B (Homo sapiens, UniProt Q01064); test: Ca2+-calmodulin dependent PDE enzyme assay (SPA), PDE1B; settings: [3H]cAMP 47 nM; enzyme 0.074 nM; Ca2+/calmodulin buffer pH 7.5; read-out: IC50 (nM) of Example 1, PDE 1B
T2 construct: full-length human PDE1B (NP_000915.1); His (C); made in house; host or cells: Sf9 (pIEX4)
Text: as §1, §2

PDE1C = biological target: T3, PDE1C (Homo sapiens, UniProt Q14123); test: Ca2+-calmodulin dependent PDE enzyme assay (SPA), PDE1C; settings: [3H]cAMP 47 nM; enzyme 0.0012 nM; Ca2+/calmodulin buffer pH 7.5; read-out: IC50 (nM) of Example 1, PDE 1C
T3 construct: full-length human PDE1A (NP_001003683.1), PDE1C (NP_005011.1); His (N); made in house; host or cells: Sf9 (baculovirus, pFastBac1)
Text: as §1, §2

PDE3A (catalytic domain) = biological target: T4, PDE3A (catalytic domain) (Homo sapiens, UniProt Q14432); test: PDE enzyme assay using [3H]cAMP as substrate, PDE3A; settings: [3H]cAMP 47 nM, enzyme 0.008 nM, read-out: IC50 (nM) of Example 1, PDE3A
T4 construct: catalytic domain (residue 641-1141) of PDE3A (NP_000912.3); His (C); made in house; host or cells: Sf9 (baculovirus, pFastBac1)
T4 sequence (Q14432 641-1141): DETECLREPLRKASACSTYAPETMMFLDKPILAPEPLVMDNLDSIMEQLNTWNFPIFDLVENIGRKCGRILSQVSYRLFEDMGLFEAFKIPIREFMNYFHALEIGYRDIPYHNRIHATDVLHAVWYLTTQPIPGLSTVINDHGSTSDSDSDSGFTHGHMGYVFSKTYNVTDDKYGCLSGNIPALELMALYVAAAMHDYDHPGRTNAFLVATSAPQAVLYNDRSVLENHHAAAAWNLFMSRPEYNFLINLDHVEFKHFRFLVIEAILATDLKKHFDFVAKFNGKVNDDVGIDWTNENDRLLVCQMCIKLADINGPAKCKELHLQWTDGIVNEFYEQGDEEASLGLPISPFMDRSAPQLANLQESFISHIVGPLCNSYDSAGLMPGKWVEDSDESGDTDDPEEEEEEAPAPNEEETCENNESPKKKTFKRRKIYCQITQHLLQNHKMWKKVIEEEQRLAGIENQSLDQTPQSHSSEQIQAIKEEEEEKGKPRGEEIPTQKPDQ
Text: as §1, with “tag.” for “tag. The nucleotide sequences encoding full-length human PDE6A (NP_000431.2) and PDE6B (AAH00249.1) are inserted into pFastBacDual (Invitrogen) vector with an N-terminal HIS tag and N-terminal Flag tag, respectively, for production of PDE6A/6B dimer.”
(§3) All 3′, 5′ cyclic nucleotide phosphodiesterase (PDE) enzyme activities are measured with a radiometric enzyme assay based on SPA detection system (scintillation proximity assay). […] Samples are read 12 hours later in a MICROBETA™ TRILUX® Counter. […] IC50 values are calculated by plotting the normalized data vs. log [compound] and fitting the data using a four parameter logistic equation.
(§4) The following phosphodiesterase activities are measured using [^3H]cAMP as reaction substrate: PDE3A (catalytic domain), PDE4D, PDE7B and PDE8A. […]

PDE4D = biological target: T5, PDE4D (Homo sapiens, UniProt Q08499); test: PDE enzyme assay using [3H]cAMP as substrate, PDE4D; settings: [3H]cAMP 47 nM; enzyme 0.021 nM; read-out: IC50 (nM) of Example 1, PDE4D
T5 construct: full-length human PDE4D (NP_006194.2); His (C); made in house; host or cells: Sf9 (baculovirus, pFastBac1)
T5 sequence (Q08499 1-673 isoform Q08499-2): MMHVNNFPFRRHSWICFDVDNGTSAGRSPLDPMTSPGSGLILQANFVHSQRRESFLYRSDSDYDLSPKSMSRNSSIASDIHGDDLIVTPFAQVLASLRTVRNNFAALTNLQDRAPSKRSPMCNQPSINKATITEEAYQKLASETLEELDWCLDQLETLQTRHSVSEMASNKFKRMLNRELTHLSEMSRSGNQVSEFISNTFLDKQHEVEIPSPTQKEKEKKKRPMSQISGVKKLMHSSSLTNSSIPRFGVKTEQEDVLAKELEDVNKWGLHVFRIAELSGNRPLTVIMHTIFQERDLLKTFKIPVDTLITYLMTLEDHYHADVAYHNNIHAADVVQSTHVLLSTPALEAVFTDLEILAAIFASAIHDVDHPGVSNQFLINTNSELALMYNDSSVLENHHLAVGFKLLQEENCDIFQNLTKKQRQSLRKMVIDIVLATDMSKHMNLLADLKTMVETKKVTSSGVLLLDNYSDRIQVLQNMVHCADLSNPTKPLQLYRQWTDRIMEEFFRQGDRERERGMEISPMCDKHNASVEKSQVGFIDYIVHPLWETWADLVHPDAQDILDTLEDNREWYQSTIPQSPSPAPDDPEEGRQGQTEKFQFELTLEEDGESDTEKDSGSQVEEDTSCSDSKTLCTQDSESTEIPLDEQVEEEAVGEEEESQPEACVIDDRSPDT
Text: as §1, with “tag.” for “tag. The nucleotide sequences encoding full-length human PDE6A (NP_000431.2) and PDE6B (AAH00249.1) are inserted into pFastBacDual (Invitrogen) vector with an N-terminal HIS tag and N-terminal Flag tag, respectively, for production of PDE6A/6B dimer.”
as §3, §4

PDE7B = biological target: T6, PDE7B (Homo sapiens, UniProt Q9NP56); test: PDE enzyme assay using [3H]cAMP as substrate, PDE7B; settings: [3H]cAMP 47 nM; enzyme 0.5 nM; read-out: IC50 (nM) of Example 1, PDE7B
T6 construct: full-length human PDE1A (NP_001003683.1), PDE1C (NP_005011.1), PDE5A (NP_001074.2), PDE7B (NP_061818.1); His (N); made in house; host or cells: Sf9 (baculovirus, pFastBac1)
T6 sequence (Q9NP56 whole entry): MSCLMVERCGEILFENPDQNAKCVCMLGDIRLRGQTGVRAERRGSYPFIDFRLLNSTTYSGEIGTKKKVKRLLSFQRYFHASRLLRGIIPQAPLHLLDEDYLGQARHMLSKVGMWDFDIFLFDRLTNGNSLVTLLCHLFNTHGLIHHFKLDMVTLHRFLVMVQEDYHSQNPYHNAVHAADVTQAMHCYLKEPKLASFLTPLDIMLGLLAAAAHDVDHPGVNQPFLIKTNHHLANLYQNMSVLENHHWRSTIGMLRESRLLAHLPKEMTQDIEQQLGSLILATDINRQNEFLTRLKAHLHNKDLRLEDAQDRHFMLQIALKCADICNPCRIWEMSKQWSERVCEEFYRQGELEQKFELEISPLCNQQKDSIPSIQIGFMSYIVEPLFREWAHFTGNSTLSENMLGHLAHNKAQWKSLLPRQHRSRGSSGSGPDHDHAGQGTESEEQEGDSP
Text: as §1, with “tag.” for “tag. The nucleotide sequences encoding full-length human PDE6A (NP_000431.2) and PDE6B (AAH00249.1) are inserted into pFastBacDual (Invitrogen) vector with an N-terminal HIS tag and N-terminal Flag tag, respectively, for production of PDE6A/6B dimer.”
as §3, §4

PDE8A = biological target: T7, PDE8A (Homo sapiens, UniProt O60658); test: PDE enzyme assay using [3H]cAMP as substrate, PDE8A; settings: [3H]cAMP 47 nM; enzyme 0.06 nM; read-out: IC50 (nM) of Example 1, PDE8A
T7 construct: full-length human PDE8A (NP_002596.1); Flag (N); made in house; host or cells: Sf9 (baculovirus, pFastBac1)
T7 sequence (O60658 whole entry): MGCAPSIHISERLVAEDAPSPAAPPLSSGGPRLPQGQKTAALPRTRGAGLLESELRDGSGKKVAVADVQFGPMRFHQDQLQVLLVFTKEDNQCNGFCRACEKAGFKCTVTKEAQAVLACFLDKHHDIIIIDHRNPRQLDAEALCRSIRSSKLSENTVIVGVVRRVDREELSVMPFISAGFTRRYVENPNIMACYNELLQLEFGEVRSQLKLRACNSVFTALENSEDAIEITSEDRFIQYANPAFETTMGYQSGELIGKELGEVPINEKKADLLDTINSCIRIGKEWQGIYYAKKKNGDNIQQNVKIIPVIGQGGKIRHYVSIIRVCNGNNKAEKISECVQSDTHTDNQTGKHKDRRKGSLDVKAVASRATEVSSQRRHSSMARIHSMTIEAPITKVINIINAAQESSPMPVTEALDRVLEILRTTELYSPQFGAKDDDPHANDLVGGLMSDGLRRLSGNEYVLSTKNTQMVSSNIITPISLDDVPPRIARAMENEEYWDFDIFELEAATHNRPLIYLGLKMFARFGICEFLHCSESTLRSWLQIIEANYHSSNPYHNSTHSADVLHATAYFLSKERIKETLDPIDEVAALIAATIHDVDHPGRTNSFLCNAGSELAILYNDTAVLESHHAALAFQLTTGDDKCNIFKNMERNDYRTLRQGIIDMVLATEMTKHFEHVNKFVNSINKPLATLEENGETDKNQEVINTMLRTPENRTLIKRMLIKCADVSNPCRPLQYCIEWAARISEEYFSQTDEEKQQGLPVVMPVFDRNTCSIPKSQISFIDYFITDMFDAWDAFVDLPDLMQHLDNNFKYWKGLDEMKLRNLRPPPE
Text: as §1, with “tag.” for “tag. The nucleotide sequences encoding full-length human PDE6A (NP_000431.2) and PDE6B (AAH00249.1) are inserted into pFastBacDual (Invitrogen) vector with an N-terminal HIS tag and N-terminal Flag tag, respectively, for production of PDE6A/6B dimer.”
as §3, §4

PDE2A = biological target: T8, PDE2A (Homo sapiens, UniProt O00408); test: PDE enzyme assay using [3H]cGMP as substrate, PDE2A; settings: [3H]cGMP 80 nM; enzyme 0.2 nM; read-out: IC50 (nM) of Example 1, PDE2A
T8 construct: full-length human PDE1B (NP_000915.1) and PDE2A (NP_002590.1); His (C); made in house; host or cells: Sf9 (pIEX4)
T8 sequence (O00408 whole entry): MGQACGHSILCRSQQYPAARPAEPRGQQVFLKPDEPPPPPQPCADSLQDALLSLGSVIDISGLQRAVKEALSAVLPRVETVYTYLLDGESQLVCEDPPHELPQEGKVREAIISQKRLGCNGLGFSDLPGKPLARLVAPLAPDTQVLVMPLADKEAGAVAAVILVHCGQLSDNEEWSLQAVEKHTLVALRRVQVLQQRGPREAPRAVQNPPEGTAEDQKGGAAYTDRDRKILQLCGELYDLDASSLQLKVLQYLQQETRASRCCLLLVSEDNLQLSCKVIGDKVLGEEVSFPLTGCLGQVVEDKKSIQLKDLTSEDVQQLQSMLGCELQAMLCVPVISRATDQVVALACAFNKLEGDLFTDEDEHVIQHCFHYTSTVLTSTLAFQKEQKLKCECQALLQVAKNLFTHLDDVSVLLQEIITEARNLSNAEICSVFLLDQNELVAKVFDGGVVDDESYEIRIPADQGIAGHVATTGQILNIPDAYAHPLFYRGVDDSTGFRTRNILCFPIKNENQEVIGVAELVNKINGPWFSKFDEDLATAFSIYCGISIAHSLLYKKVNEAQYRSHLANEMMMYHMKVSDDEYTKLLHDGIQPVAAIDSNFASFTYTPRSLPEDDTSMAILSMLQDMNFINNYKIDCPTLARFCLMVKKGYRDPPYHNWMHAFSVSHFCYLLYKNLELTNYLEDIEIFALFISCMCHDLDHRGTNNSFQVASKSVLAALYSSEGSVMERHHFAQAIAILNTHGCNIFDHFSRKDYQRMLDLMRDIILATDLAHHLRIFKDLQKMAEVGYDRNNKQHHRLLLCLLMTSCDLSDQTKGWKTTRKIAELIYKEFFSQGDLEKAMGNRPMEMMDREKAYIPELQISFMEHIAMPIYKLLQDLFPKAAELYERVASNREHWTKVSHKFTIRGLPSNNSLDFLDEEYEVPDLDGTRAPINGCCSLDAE
Text: as §1, with “tag.” for “tag. The nucleotide sequences encoding full-length human PDE6A (NP_000431.2) and PDE6B (AAH00249.1) are inserted into pFastBacDual (Invitrogen) vector with an N-terminal HIS tag and N-terminal Flag tag, respectively, for production of PDE6A/6B dimer.”
as §3
(§5) The following phosphodiesterase activities are measured using [^3H]cGMP as reaction substrate: PDE2A, PDE5A, PDE6A/6B, PDE9A, PDE10A and PDE11A. […]

PDE5A = biological target: T9, PDE5A (Homo sapiens, UniProt O76074); test: PDE enzyme assay using [3H]cGMP as substrate, PDE5A; settings: [3H]cGMP 80 nM; enzyme 0.002 nM; read-out: IC50 (nM) of Example 1, PDE5A
T9 construct: full-length human PDE1A (NP_001003683.1), PDE1C (NP_005011.1), PDE5A (NP_001074.2); His (N); made in house; host or cells: Sf9 (baculovirus, pFastBac1)
Text: as §1, with “tag.” for “tag. The nucleotide sequences encoding full-length human PDE6A (NP_000431.2) and PDE6B (AAH00249.1) are inserted into pFastBacDual (Invitrogen) vector with an N-terminal HIS tag and N-terminal Flag tag, respectively, for production of PDE6A/6B dimer.”
as §3, §5

PDE6AB (PDE6A/6B dimer) = biological target: T10, PDE6AB (PDE6A/6B dimer) (Homo sapiens, UniProt P16499+P35913); test: PDE enzyme assay using [3H]cGMP as substrate, PDE6AB; settings: [3H]cGMP 80 nM; enzyme 5 nM; read-out: IC50 (nM) of Example 1, PDE 6AB
T10 construct: full-length human PDE6A (NP_000431.2); full-length human PDE6A (NP_000431.2) and PDE6B (AAH00249.1); His (N); Flag (N); made in house; host or cells: Sf9 (baculovirus, pFastBacDual)
Text: as §1, with “tag.” for “tag. The nucleotide sequences encoding full-length human PDE6A (NP_000431.2) and PDE6B (AAH00249.1) are inserted into pFastBacDual (Invitrogen) vector with an N-terminal HIS tag and N-terminal Flag tag, respectively, for production of PDE6A/6B dimer.”
as §3, §5

PDE9A = biological target: T11, PDE9A (Homo sapiens, UniProt O76083); test: PDE enzyme assay using [3H]cGMP as substrate, PDE9A; settings: [3H]cGMP 20 nM; enzyme 1 nM; read-out: IC50 (nM) of Example 1, PDE9A
T11 construct: full-length human PDE1A (NP_001003683.1), PDE1C (NP_005011.1), PDE5A (NP_001074.2), PDE7B (NP_061818.1) and PDE9A (NP_002597.1); His (N); made in house; host or cells: Sf9 (baculovirus, pFastBac1)
T11 sequence (O76083 whole entry): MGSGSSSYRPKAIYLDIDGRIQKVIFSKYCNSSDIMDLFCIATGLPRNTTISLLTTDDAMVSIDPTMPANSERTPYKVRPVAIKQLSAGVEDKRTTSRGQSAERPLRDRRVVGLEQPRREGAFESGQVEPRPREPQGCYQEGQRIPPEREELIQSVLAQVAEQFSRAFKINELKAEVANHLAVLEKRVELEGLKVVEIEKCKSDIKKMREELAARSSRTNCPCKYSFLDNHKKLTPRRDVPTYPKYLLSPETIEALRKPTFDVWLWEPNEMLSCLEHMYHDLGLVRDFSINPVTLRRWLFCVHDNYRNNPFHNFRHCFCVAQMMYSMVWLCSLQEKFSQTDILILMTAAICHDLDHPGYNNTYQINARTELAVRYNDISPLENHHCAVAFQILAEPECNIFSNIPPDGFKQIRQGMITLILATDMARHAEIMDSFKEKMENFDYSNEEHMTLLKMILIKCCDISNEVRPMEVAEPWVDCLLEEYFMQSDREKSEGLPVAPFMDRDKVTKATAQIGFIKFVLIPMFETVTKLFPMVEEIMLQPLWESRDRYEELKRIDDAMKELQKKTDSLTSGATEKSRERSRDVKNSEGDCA
Text: as §1, with “tag.” for “tag. The nucleotide sequences encoding full-length human PDE6A (NP_000431.2) and PDE6B (AAH00249.1) are inserted into pFastBacDual (Invitrogen) vector with an N-terminal HIS tag and N-terminal Flag tag, respectively, for production of PDE6A/6B dimer.”
as §3, §5

PDE10A = biological target: T12, PDE10A (Homo sapiens, UniProt Q9Y233); test: PDE enzyme assay using [3H]cGMP as substrate, PDE10A; settings: [3H]cGMP 80 nM; enzyme 0.03 nM; read-out: IC50 (nM) of Example 1, PDE10A
T12 construct: full-length human PDE10A (AAD32595.1); Flag-His (C); made in house; host or cells: Sf9 (baculovirus, pFastBac1)
T12 sequence (Q9Y233 1-779 isoform Q9Y233-1): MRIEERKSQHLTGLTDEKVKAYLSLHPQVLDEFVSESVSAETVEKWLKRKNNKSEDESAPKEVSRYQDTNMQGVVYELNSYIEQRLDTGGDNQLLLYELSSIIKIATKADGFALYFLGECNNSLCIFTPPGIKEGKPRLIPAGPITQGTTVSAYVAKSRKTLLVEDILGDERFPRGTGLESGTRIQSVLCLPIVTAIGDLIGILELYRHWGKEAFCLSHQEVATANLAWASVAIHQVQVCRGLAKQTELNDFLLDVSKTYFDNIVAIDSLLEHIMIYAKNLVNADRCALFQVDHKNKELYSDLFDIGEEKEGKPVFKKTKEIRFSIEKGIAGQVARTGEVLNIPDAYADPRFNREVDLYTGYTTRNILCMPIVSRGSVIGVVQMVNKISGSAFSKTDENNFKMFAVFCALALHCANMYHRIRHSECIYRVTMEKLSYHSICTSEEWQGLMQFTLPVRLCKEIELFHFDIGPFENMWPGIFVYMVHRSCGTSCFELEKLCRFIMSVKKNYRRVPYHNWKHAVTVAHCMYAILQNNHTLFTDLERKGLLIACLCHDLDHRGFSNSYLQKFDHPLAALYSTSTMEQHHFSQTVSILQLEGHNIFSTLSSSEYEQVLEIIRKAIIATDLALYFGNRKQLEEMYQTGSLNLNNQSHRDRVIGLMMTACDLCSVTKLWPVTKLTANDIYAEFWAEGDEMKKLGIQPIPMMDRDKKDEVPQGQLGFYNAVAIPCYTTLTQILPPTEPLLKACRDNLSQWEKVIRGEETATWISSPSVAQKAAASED
Text: as §1, with “tag.” for “tag. The nucleotide sequences encoding full-length human PDE6A (NP_000431.2) and PDE6B (AAH00249.1) are inserted into pFastBacDual (Invitrogen) vector with an N-terminal HIS tag and N-terminal Flag tag, respectively, for production of PDE6A/6B dimer.”
as §3, §5

PDE11A = biological target: T13, PDE11A (Homo sapiens, UniProt Q9HCR9); test: PDE enzyme assay using [3H]cGMP as substrate, PDE11A; settings: [3H]cGMP 80 nM; enzyme 0.03 nM; read-out: IC50 (nM) of Example 1, PDE11A
T13 construct: full-length human PDE8A (NP_002596.1) and PDE11A (AAI12394.1); Flag (N); made in house; host or cells: Sf9 (baculovirus, pFastBac1)
Text: as §1, with “tag.” for “tag. The nucleotide sequences encoding full-length human PDE6A (NP_000431.2) and PDE6B (AAH00249.1) are inserted into pFastBacDual (Invitrogen) vector with an N-terminal HIS tag and N-terminal Flag tag, respectively, for production of PDE6A/6B dimer.”
as §3, §5

O=c1c2nnc(C3(C4CC4)CC3)n2c2c(n1CC1CC1)CCCC2 [Example 1, 1-(1-cyclopropylcyclopropyl)-5-(cyclopropylmethyl)-6,7,8,9-tetrahydro-[1,2,4]triazolo[4,3-a]quinoxalin-4-one]
IC50 (PDE1A): 3.41 nM
IC50 (PDE1B): 4.91 nM
IC50 (PDE1C): 3.05 nM
IC50 (PDE3A (catalytic domain)): > 100000 nM
IC50 (PDE4D): 7060 nM
IC50 (PDE7B): 2180 nM
IC50 (PDE8A): > 10000 nM
IC50 (PDE2A): > 10000 nM
IC50 (PDE5A): > 10000 nM
IC50 (PDE6AB (PDE6A/6B dimer)): > 10000 nM
IC50 (PDE9A): > 10000 nM
IC50 (PDE10A): > 10000 nM
IC50 (PDE11A): 2970 nM
